Experimental data from patent EP2070549A1, “THERAPEUTIC AGENT FOR ACCELERATION OF SPINAL NERVE REPAIR COMPRISING DESACYL GHRELIN OR DERIVATIVE THEREOF AS ACTIVE INGREDIENT” (University of Miyazaki, priority 2006, dated 2008).

How the values were obtained:
[1] = tested on: cultured spinal neuronal cells; experiment: BrdU incorporation into cultured spinal neuronal cells, Cell Proliferation ELISA (Example 3); assay type: cell-based, rat; conditions: for BrdU incorporation into the cells, Mean: n 6, Control = 100.0
Text: Embryos were extracted from a pregnant Wistar rat at day 16 by opening the abdomen under anesthesia. Spinal cords were collected from these embryos and subjected to papain digestion in Hank's balanced salt solution; as a result of subsequent mechanical separation by pipetting, a dispersion of fetal spinal nerve cells was obtained. After being filtered and centrifuged, the dispersed cells were suspended in a DMEM medium containing NaHCO3, 5% fetal bovine serum, penicillin (100 U/mL) and streptomycin (100 µg/mL), followed by plating onto laminin-coated 96-well multi-plates at 10^5 cells per well. After incubation for 4 days, 5-bromo-2'-deoxyuridine (BrdU) (10 µM) was added and incubation was conducted for 6 hours; further, rat des-acyl ghrelin, des-acyl ghrelin(1-5)-NH2 (GSSFL-NH2, SEQ ID NO:22), des-acyl ghrelin(1-7)-NH2 (GSSFLSP-NH2, SEQ ID NO:23) or des-acyl ghrelin(1-15)-NH2 (GSSFLSPEHQRVQQR-NH2, SEQ ID NO:24) was added in amounts of 0.03 - 3 nM and incubation was conducted for 12 hours before investigating the action of des-acyl ghrelin and its derivatives on BrdU incorporation.
After the end of incubation, the cells were recovered and using Cell Proliferation ELISA Kit (Roche Diagnostic GmbH, Mannheim, Germany), the amount of BrdU incorporation into the cells was measured to investigate the action for proliferating the spinal neuronal cells.

[2] = tested on: rat models with injured spinal cord; experiment: Grafting of spinal neuronal cells and local administration of des-acyl ghrelin to rat models with injured spinal cord, frequency of standing up; assay type: in vivo; conditions: for frequency of a rat standing up per unit time: 3-minute observation
Experimental: In accordance with the procedure described in Morino, T. et al, Neuroscience Research, 2003, vol. 46, pp 309-318, the grafting of spinal neuronal cells and local administration of des-acyl ghrelin to rat models with injured spinal cord were assessed. Male SD rats (8 to 9 weeks old) were anesthetized with pentobarbital and incised in the back to expose a vertebra ([…]). After excising the vertebral arch, a dental drill was used to open a window with a diameter of […], and a stainless steel needle with a silicone rubber fixed thereto was applied vertically, followed by loading of the top with a 20-g weight. Following a compression time of 30 minutes, a damaging drop equivalent to a weight of about 100 g was finally applied from above to construct models suffering a movement disorder in the lower limbs. The animals were divided into three groups: 1) a group under sham operation; 2) a control group with injured spinal cord; and 3) a group with injured spinal cord, treated by cell grafting, and locally administered with des-acyl ghrelin. The group under sham operation received laminectomy but was simply sutured in the muscle and skin thereafter. After injuring the spinal cord, cultured spinal neuronal cells (10^5 cells/25 µL) were grafted subdurally. Rat des-acyl ghrelin was administered subdurally in an amount of 1 nmol together with the cells.
Twenty-four hours after the operation, the rats were transferred into a see-through cage and observed for the frequency of their standing up (by 3-minute observation). The principal item of observation was the frequency per unit time of the rat standing up (in such a posture that it lifted the upper limbs and supported the body weight only with the lower limbs) was counted to assess the function of its hind limbs.

[3] = tested on: des-acyl ghrelin specific binding sites in the membrane fractions of fetal spinal cord; experiment: Binding of [125I]-labelled des-acyl ghrelin to membrane fractions of fetal spinal cord (saturation and competition); design: species or system rat; conditions: competition with 0.1 nM labeled des-acyl ghrelin
Experimental: For instance, the identity of a substance that acts on a des-acyl ghrelin specific binding site, namely, the identity of a substance having binding activity for a des-acyl ghrelin specific binding site can be determined, as will be described later in Example 1, by first preparing samples from a tissue of interest (e.g., membrane fractions prepared from an extracted spinal cord tissue), then incubating the sample in the presence of a test substance, with or without an added radioactive ligand such as [^125I]-labeled des-acyl ghrelin, measuring the radioactivity of the samples, and analyzing the values obtained. For analysis of the values, techniques known to skilled artisans may be employed, as exemplified by the method of Scatchard and a program such as GraphPAD Prism 4 program, which are applied to calculate the maximum number of binding sites (Bmax) and the dissociation constant (Kd). The des-acyl ghrelin specific binding sites are yet to be characterized specifically but one place of their occurrence is in rat spinal cord cells, in particular, on rat spinal cord cell membranes. […]
With [^125I]-labelled des-acyl ghrelin used as a radioactive ligand, the binding of des-acyl ghrelin to the tissue membranes of fetal spinal cord was studied. […] The radioactivity of the membranes on the filters was measured with a gamma counter. […]

[4] = tested on: cultured fetal spinal neuronal cells; experiment: BrdU incorporation into cultured fetal spinal neuronal cells, Cell Proliferation ELISA (Example 2); assay type: cell-based, rat; conditions: 0.03-300 nM tested, 12 hours, then BrdU 6 hours; FIG. 2A
Experimental: • (1) Embryos were extracted from a pregnant Wistar rat at day 17 under anesthesia. Spinal cords were collected from these embryos and subjected to papain digestion in Hank's balanced salt solution; as a result of subsequent mechanical separation by pipetting, a dispersion of fetal spinal neurons was obtained. […] These dispersed cells were suspended in a DMEM medium containing NaHCO3, 5% fetal bovine serum, penicillin (100 U/mL) and streptomycin (100 µg/mL), followed by plating onto laminin-coated 96-well multi-plates at 10^5 cells per well. After incubation for 4 days, des-acyl ghrelin (0.03-300 nM) was added to the culture and incubation was conducted for 12 hours; then, 5-bromo-2'-deoxyuridine (BrdU) ([…]) was added and incubation was conducted for an additional 6 hours; then, the des-acyl ghrelin was investigated for its action on BrdU incorporation.
• (2) After the end of the above incubation, the cells were recovered and using Cell Proliferation ELISA Kit (Roche Diagnostic GmbH, Mannheim, Germany), the amount of BrdU incorporation into the fetal spinal neuronal cells was measured to investigate the action for proliferating the spinal neuronal cells.

[5] = tested on: cultured fetal spinal neuronal cells; experiment: BrdU positive cells by anti-BrdU immunostaining in cultured fetal spinal neuronal cells (Example 2); assay type: cell-based, rat; conditions: compared to physiological saline, FIG. 2B, 2C
Experimental: • (1) Embryos were extracted from a pregnant Wistar rat at day 17 under anesthesia. Spinal cords were collected from these embryos and subjected to papain digestion in Hank's balanced salt solution; as a result of subsequent mechanical separation by pipetting, a dispersion of fetal spinal neurons was obtained. […] These dispersed cells were suspended in a DMEM medium containing NaHCO3, 5% fetal bovine serum, penicillin (100 U/mL) and streptomycin (100 µg/mL), followed by plating onto laminin-coated 96-well multi-plates at 10^5 cells per well. […]
• (3) After the end of the above incubation (1), the cells were fixed with methanol and glacial acetic acid, had their DNA denatured with 2 N HCl; thereafter, the BrdU incorporated into the cells was measured by detecting the BrdU positive cells using a rat anti-BrdU monoclonal antibody (1:1000, Abcam, Cambridge, UK) as a primary antibody, and also using Cy™ 3-conjugated donkey anti-rat IgG polyclonal antibody (1:1000, Jackson ImmunoResearch Laboratories, Inc., PA, USA) as a secondary antibody, in order to investigate the action for proliferating spinal cord cells. […]

[6] = target: des-acyl ghrelin specific binding sites in membrane fractions of rat fetal spinal cord (rat); experiment: competition with 0.1 nM [125I]-des-acyl ghrelin on rat fetal spinal cord membranes
[7] = target: des-acyl ghrelin specific binding sites in membrane fractions of rat fetal spinal cord (rat); experiment: saturation radioligand binding, rat fetal spinal cord membranes, Scatchard/GraphPAD Prism

Q: For Des-acyl ghrelin, which “BrdU incorporation into the cells (in words)” value ([1]; 0.03 to 3 nM) is on record?
A: Its value is “increased”.

Q: And the “BrdU incorporation into the cells, Mean” value ([1]; Concentration 0.03 nM)?
A: Its value is 113.6.

Q: What about the “BrdU incorporation into the cells, Mean” value ([1]; Concentration 0.3 nM) of the same substance?
A: Its value is 112.6.

Q: What about the “BrdU incorporation into the cells, Mean” value ([1]; Concentration 3 nM) of the same substance?
A: Its value is 108.2.

Q: What about the “frequency of a rat standing up per unit time” value ([2]; 24 hours after operation, 1 nmol subdurally together with grafted cells (10^5 cells/25 µL)) of the same substance?
A: The value was 8.0 ± 0.0.

Q: What about the “frequency of a rat standing up per unit time” value ([2]; Initial (before operation)) of the same substance?
A: The value was 15.0 ± 2.0.

Q: What about the “frequency of standing up (in words)” value ([2]; combination of cell grafting and local administration, 24 hours after operation) of the same substance?
A: The value was “recovery”.

Q: And the “concentrations at which the binding of the labeled des-acyl ghrelin was displaced” value [3]?
A: Its value is ≥ 10^-3 M.

Q: And the IC50 ([3]; 4 °C for an hour)?
A: The IC50 was 23.5 nM.

Q: What about the “concentration that could increase the BrdU incorporation into the cells” value [4] of the same substance?
A: The value was ≥ 3 nM.

Q: And the BrdU incorporation [5]?
A: Its BrdU incorporation is “increased”.

Q: What about the “number of cells that incorporated BrdU” value [5] of the same substance?
A: Its value is “increased”.

Q: unlabelled des-acyl ghrelin (peptide) was tested. Which IC50 [6] did it give?
A: Its IC50 is 23.5 nM.

Q: Which Bmax (fmol/mg protein) [7] does the source give for “[^125I]-labelled des-acyl ghrelin (peptide)” here?
A: Its Bmax (fmol/mg protein) is 8.79.
